Data on one molecule can be found in patent US20230233569A1 (Revolution Medicines, Inc., priority 2020, published 2023).

The structures appear in SMILES notation.

What is called EC50 is the midpoint of the concentration-response curve.

One experiment concerns AsPC-1 (K-Ras G12D). The experiment is described as follows: Potency assay: pERK, other cell line. In kind it is cell-based. As to conditions: Homo sapiens, ASPC1.
The next experiment concerns Capan-1 (K-Ras G12V). The experiment is described as follows: Potency assay: pERK, other cell line. It counts as cell-based. Particulars: Homo sapiens.

Turning to `CCn1c(-c2cccnc2[C@H](C)OC)c2c3cc(ccc31)-c1cc(O)cc(c1)C[C@H](NC(=O)[C@H](C(C)C)N(C)C(=O)[C@H]1CCN(C(=O)OC)C1)C(=O)N1CCC[C@H](N1)C(=O)OCC(C)(C)C2` (atropisomer, axis not shown) [Example A3], the figures for the EC50 in the experiment with AsPC-1 (K-Ras G12D) and with Capan-1 (K-Ras G12V) were 0.144 µM and 0.008 µM, respectively.
